pIC50: −log10 of the molar value.
What was measured:
ASK1/MAP3K5 = molecular target: T1, ASK1/MAP3K5 (Homo sapiens, UniProt Q99683); experiment: ASK1 enzyme assay (ASK1/MAP3K5 assay by Reaction Biology Corp., 33P-ATP filter-binding); assay type: biochemical; conditions: 20 μM myelin basic protein and 10 μM ATP; class symbols
T1 construct: purchased Reaction Biology Corp. (Malvern, Pa.)
T1 sequence (Q99683 1-1374): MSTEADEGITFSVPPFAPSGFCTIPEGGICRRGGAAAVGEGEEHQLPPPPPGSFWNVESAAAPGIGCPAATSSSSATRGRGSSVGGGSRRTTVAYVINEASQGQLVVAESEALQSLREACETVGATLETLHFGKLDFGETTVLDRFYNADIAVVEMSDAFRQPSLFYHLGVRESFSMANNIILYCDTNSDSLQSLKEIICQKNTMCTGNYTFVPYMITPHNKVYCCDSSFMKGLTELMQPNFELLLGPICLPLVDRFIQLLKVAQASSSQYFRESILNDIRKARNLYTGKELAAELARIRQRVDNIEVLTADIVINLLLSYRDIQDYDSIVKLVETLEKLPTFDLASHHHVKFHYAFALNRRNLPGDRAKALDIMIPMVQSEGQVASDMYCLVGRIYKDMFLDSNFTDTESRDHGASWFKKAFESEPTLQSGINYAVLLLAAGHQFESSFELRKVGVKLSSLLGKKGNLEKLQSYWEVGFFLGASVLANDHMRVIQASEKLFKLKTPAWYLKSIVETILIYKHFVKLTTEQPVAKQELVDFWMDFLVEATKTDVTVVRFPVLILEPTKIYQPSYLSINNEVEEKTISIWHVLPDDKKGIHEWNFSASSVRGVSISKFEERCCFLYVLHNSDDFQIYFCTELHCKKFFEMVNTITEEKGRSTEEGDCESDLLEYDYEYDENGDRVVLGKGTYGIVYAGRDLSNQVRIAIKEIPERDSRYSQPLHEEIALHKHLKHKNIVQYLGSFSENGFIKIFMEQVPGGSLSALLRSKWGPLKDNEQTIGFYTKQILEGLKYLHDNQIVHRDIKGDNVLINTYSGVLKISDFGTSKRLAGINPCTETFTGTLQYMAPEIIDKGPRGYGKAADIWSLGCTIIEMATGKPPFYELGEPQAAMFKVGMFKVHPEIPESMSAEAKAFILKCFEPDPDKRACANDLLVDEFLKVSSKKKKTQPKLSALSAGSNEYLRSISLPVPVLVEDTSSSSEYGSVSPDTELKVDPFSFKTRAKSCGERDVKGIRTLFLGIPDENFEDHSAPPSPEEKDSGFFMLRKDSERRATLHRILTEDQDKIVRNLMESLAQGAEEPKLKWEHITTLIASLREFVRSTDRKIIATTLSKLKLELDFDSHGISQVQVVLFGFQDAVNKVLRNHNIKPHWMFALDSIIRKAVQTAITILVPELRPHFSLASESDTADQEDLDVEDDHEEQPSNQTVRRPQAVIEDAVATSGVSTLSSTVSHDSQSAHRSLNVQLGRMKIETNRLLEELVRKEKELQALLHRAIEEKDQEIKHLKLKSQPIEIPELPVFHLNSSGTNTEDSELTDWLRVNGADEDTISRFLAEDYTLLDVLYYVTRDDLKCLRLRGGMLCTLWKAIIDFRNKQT
Method: The protein kinase inhibitory activity of the compounds described herein were tested using the ASK1/MAP3K5 assay by Reaction Biology Corp. (Malvern, Pa.). The assay procedure follows (and is also available on the Reaction Biology Corp. website). • Base Reaction Buffer: 20 mM Hepes (pH 7.5), 10 mM MgCl2, 1 mM EGTA, • 0.02% Brij35, 0.02 mg/mL BSA, 0.1 mM Na3VO4, 2 mM DTT, 1% DMSO; • Substrate: 20 μM of myelin basic protein (MBP) and 10 μM ATP; • Protein kinase: ASK1/MAP3K5. • Reaction Procedure: • 1. Prepare indicated substrate in freshly prepared Base Reaction Buffer. • 2. Deliver any required cofactors to the substrate solution. • 3. Deliver indicated kinase into the substrate solution and gently mix. • 4. Deliver compounds in DMSO into the kinase reaction mixture by Acoustic; technology (Echo550; nanoliter range), incubate for 20 minutes at room temperature. • 5. Deliver ^33P-ATP (specific activity 10 μCi/μL) into the reaction mixture to initiate the reaction. • 6. Incubate kinase reaction for 2 hours at room temperature. • 7. Reactions are spotted onto P81 ion exchange paper. • 8. Detect kinase activity by filter-binding method.

[1] = molecular target: T2, ASK1 T838 auto phosphorylation (Homo sapiens, UniProt Q99683); experiment: ASK1 (AUTO PHOS T838) assay in HEK-293T cells, MSD format; assay type: cell-based; conditions: HEK-293T cells transfected with ASK1-V5, 1 hr compound incubation
T2 construct: ASK1-V5 tagged full length plasmid; expressed in transfected cells; host or cells: HEK-293T
T2 sequence (Q99683 1-1374): T1 sequence (Q99683 1-1374)
Method: ASK1 T838 auto phosphorylation was measured in HEK-293T cells using MSD assay format. HEK 293T cells were seeded in 15 cm plates at a density of 18 million cells and 20 mL DMEM with 10% FBS, Pen/Strep media. The plates were incubated at 37° C. overnight. Media on plates was changed to OPTI-MEM, serum free media and cells were transfected with 9 μg of ASK1-V5 tagged full length plasmid using Lipofectamine 2000 (Invitrogen) and the plates were incubated at 37° C. overnight. Cells were trypsinized, counted on Nexcellometer and plated into 96 well tissue culture plates with 100,000 cells/well and 200 μL media. Cells were incubated for 4 hr at 37° C. then ASK1 compounds were added using a HP 300e. Compounds were tested at 20 μM with 3 fold, 10 point dilution points then incubated for 1 hr at 37° C. A lysis buffer (Cell Signaling) was prepared with protease and phosphatase inhibitor and maintained at 4° C. until use. Media from cells was discarded and 120 μL of cold lysis buffer was added to the cells, the plate was shaken 4° C. for 1 hr. Lysate was mixed using Apricot liquid handler; aspirating up and down 16 times at high speed using 50 μL volume. 50 μL of cell lysates were transferred to a pre-coated MSD plates containing mouse anti-V5 antibody (1:500 dilution) and washed 3× with MSD wash buffer (TBST) and blocked with a 3% BSA solution. Plates were then incubated on a plate shaker overnight at 4° C. Plates were washed 3× with MSD wash buffer and 50 μL of rabbit anti-pASK1 T838 antibody was added to the wells and incubated for 2 hr at room temperature on a plate shaker. Plates were then washed and 50 μL of goat anti-rabbit sulfa-tag (1:500 dilution) was added to wells, and incubated for 1 hr at room temperature on a plate shaker. Plates were washed 3× and 150 μL of 2×MSD Read buffer was added to wells. Plates were immediately read on a MSD Instrument Reader where chemoluminecense signal was measured. Data was analyzed using Graph Pad or Genedata, the data was normalized and plotted, % activity versus log of compound concentration. The IC50 values were obtained from a 4 parameter fit.

pIC50 (ASK1/MAP3K5) | pIC50 ([1]; class symbols) | pIC50 [1] | Structure (SMILES)
5.00 to 6.00 | 5.00 to 6.00 | – | C[C@@H]1CCCOc2ncc(-c3cnn(CCN(C)C)c3)cc2C(=O)Nc2cccc(n2)-c2nncn21 [Compound 24, (R)-5^5-(1-(2-(Dimethylamino)ethyl)-1H-pyrazol-4-yl)-10-methyl-1^4H-6-oxa-3-aza-2(2,6),5(3,2)-dipyridina-1(3,4)-triazolacyclodecaphan-4-one]
≥ 7.00 | 6.00 to 7.00 | – | C[C@H]1CCCOc2ncc(C3CN(C)C3)cc2C(=O)Nc2cccc(n2)-c2nncn21 [Compound 47, (S)-10-Methyl-5^5-(1-methylazetidin-3-yl)-1^4H-6-oxa-3-aza-2(2,6),5(3,2)-dipyridina-1(3,4)-triazolacyclodecaphan-4-one]
≥ 7.00 | 6.00 to 7.00 | – | C[C@H]1CCCOc2ncc(-n3cncc3C3CC3)cc2C(=O)Nc2cccc(n2)-c2nncn21 (single isomer, unassigned) [Compound 33]
≥ 7.00 | 6.00 to 7.00 | – | C[C@H]1CCCOc2ncc(C(C)(C)O)cc2C(=O)Nc2cccc(n2)-c2nncn21 [Compound 39, (S)-5^5-(2-Hydroxypropan-2-yl)-10-methyl-1^4H-6-oxa-3-aza-2(2,6),5(3,2)-dipyridina-1(3,4)triazolacyclodecaphan-4-one]
≥ 7.00 | 6.00 to 7.00 | – | C[C@@H]1CN(c2cnc3c(c2)C(=O)Nc2cccc(n2)-c2nncn2[C@@H](C)CCCO3)C[C@@H](C)N1 [Compound 14, (S)-5^5-((3R,5R)-3,5-Dimethylpiperazin-1-yl)-10-methyl-1^4H-6-oxa-3-aza-2(2,6),5(3,2)-dipyridina-1(3,4)-triazolacyclodecaphan-4-one]
≥ 7.00 | 6.00 to 7.00 | – | Cc1cncn1-c1cnc2c(c1)C(=O)Nc1cccc(n1)-c1nncn1[C@@H](C)CCCO2 (single isomer, unassigned) [Compound 31]
≥ 7.00 | ≥ 7.00 | – | C[C@H]1CCCOc2ncc(N3CCOCC3)cc2C(=O)Nc2cccc(n2)-c2nncn21 [Compound 7, (S)-10-Methyl-5^5-morpholino-1^4H-6-oxa-3-aza-2(2,6),5(3,2)-dipyridina-1(3,4)-triazolacyclodecaphan-4-one]
5.00 to 6.00 | – | ≤ 5.00 | C[C@@H]1CCCOc2ncccc2C(=O)Nc2cccc(n2)-c2nncn21 (single isomer, unassigned) [Compound 5]
≥ 7.00 | ≥ 7.00 | – | C[C@H]1CCCOc2ncc(-c3cncn3C)cc2C(=O)Nc2cccc(n2)-c2nncn21 [Compound 28, (S)-10-Methyl-5^5-(1-methyl-1H-imidazol-5-yl)-1^4H-6-oxa-3-aza-2(2,6),5(3,2)-dipyridina-1(3,4)-triazolacyclodecaphan-4-one]
≥ 7.00 | 6.00 to 7.00 | – | COC(C)(C)c1cnc2c(c1)C(=O)Nc1cccc(n1)-c1nncn1[C@@H](C)CCCO2 [Compound 40, (S)-5^5-(2-Methoxypropan-2-yl)-10-methyl-1^4H-6-oxa-3-aza-2(2,6),5(3,2)-dipyridina-1(3,4)-triazolacyclodecaphan-4-one]
5.00 to 6.00 | – | ≤ 5.00 | C[C@@H]1CCCOc2ncc(C#N)cc2C(=O)Nc2cccc(n2)-c2nncn21 [Compound 37, (R)-10-Methyl-4-oxo-1^4H-6-oxa-3-aza-2(2,6),5(3,2)-dipyridina-1(3,4)-triazolacyclodecaphane-5^5-carbonitrile]
5.00 to 6.00 | – | ≤ 5.00 | C[C@@H]1CCCOc2ncc(Br)cc2C(=O)Nc2cccc(n2)-c2nncn21 (single isomer, unassigned) [Compound 2]
≥ 7.00 | ≥ 7.00 | – | C[C@@H]1CN(c2cnc3c(c2)C(=O)Nc2cccc(n2)-c2nncn2[C@@H](C)CCCO3)C[C@H](C)N1 [Compound 11, (S)-5^5-((3S,5R)-3,5-Dimethylpiperazin-1-yl)-10-methyl-1^4H-6-oxa-3-aza-2(2,6),5(3,2)-dipyridina-1(3,4)-triazolacyclodecaphan-4-one]
≥ 7.00 | ≥ 7.00 | – | C[C@H]1CCCOc2ncc(C3COC3)cc2C(=O)Nc2cccc(n2)-c2nncn21 [Compound 45, (S)-10-Methyl-5^5-(oxetan-3-yl)-1^4H-6-oxa-3-aza-2(2,6),5(3,2)-dipyridina-1(3,4)-triazolacyclodecaphan-4-one]
≥ 7.00 | ≥ 7.00 | – | C[C@H]1CCCOc2ncc(C3CN(C(=O)OC(C)(C)C)C3)cc2C(=O)Nc2cccc(n2)-c2nncn21 [Compound 46, tert-Butyl (S)-3-(10-methyl-4-oxo-1^4H-6-oxa-3-aza-2(2,6),5(3,2)-dipyridina-1(3,4)-triazolacyclodecaphane-5^5-yl)azetidine-1-carboxylate]
≥ 7.00 | ≥ 7.00 | – | C[C@H]1CCCOc2ncc(-n3cnc(C4CC4)c3)cc2C(=O)Nc2cccc(n2)-c2nncn21 (single isomer, unassigned) [Compound 32]
≥ 7.00 | 6.00 to 7.00 | – | CC1CCCOc2ncccc2C(=O)Nc2cccc(n2)-c2nncn21 (stereo not drawn) [Compound 3, 10-Methyl-1^4H-6-oxa-3-aza-2(2,6),5(3,2)-dipyridina-1(3,4)-triazolacyclodecaphan-4-one]

Structure (SMILES) | pIC50 (ASK1/MAP3K5) | pIC50 ([1]; class symbols) | pIC50 [1]
C[C@H]1CCCOc2ncc(N3CC4CC(C3)O4)cc2C(=O)Nc2cccc(n2)-c2nncn21 [Compound 8, (10S)-5^5-(6-Oxa-3-azabicyclo[3.1.1]heptan-3-yl)-10-methyl-1^4H-6-oxa-3-aza-2(2,6),5(3,2)-dipyridina-1(3,4)-triazolacyclodecaphan-4-one] | ≥ 7.00 | ≥ 7.00 | –

From US11897898B2, “Pyridine macrocycle compounds as ASK1 inhibiting agents” (BIOGEN MA INC., priority 2018, dated 2024)
